Each compound was assayed against T1, ADAR1 (Homo sapiens, UniProt P55265) (assay: ADAR1 Inhibition Assay (IFN fold-induction, Quanti-Luc luminescence, p110 KO A549 dual cells)). Settings: IFN fold-induction vs DMSO, 24 and 48 h.
T1 construct: endogenous in cells; host or cells: p110 KO A549 dual cells
T1 sequence (P55265 1-1226): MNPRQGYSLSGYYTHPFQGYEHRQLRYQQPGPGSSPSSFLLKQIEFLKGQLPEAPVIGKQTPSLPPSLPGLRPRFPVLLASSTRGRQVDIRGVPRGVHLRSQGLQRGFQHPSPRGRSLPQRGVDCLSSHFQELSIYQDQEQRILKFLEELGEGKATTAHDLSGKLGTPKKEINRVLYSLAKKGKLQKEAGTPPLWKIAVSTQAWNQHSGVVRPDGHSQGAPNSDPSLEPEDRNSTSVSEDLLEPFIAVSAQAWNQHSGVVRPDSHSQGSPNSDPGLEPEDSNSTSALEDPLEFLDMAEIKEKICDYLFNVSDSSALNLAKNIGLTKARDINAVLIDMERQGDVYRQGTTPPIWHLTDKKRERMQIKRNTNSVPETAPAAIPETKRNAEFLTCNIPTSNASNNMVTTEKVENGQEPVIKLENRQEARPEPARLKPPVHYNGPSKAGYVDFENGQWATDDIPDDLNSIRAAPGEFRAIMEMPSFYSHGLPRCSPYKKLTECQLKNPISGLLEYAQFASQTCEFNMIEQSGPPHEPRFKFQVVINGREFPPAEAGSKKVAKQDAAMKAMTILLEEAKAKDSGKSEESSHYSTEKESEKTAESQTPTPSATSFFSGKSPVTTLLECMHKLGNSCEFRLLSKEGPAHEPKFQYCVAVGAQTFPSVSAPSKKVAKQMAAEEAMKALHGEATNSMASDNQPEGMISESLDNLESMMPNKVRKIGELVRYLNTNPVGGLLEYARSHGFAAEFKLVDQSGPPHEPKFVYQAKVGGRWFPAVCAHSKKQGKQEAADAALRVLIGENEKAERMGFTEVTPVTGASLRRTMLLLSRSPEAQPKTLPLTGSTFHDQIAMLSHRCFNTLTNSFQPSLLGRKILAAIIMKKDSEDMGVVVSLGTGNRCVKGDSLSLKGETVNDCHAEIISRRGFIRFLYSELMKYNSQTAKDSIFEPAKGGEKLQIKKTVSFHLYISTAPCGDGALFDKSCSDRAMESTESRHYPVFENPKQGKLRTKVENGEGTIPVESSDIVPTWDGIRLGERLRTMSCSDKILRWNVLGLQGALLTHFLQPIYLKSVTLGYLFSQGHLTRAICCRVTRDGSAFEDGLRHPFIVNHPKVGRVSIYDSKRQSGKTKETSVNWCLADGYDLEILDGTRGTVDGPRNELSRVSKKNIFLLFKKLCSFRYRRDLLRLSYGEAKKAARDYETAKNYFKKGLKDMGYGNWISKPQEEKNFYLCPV
Type: cell-based
How it was run: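 p110 KO A549 dual cells (20,000/well) in supplemented DMEM, treated next day with compound at 1% final DMSO for 24 and 48 h at 37 °C, 5% CO2. Supernatant luminescence read with Quanti-Luc; IFN fold-induction = sample RLU/mean DMSO RLU, used for EC50.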

Compound	EC50 [µM]
CCOC(=O)c1cc(-c2ccccc2)sc1NC(=O)c1ccc(-c2cccc(NS(C)(=O)=O)c2)o1 [Compound 268]	> 100
CS(=O)(=O)Nc1cccc(NC(=O)c2cc(-c3ccccc3)sc2N)c1 [Compound 269]	> 100
CS(=O)(=O)Nc1cccc(C(=O)OCCNC(=O)c2csc(-c3ccccc3)c2)c1 [Compound 271]	> 100
CCOC(=O)c1cc(-c2ccccc2)sc1NC(=O)c1nn(-c2cccc(NS(C)(=O)=O)c2)c(=O)cc1C [Compound 273]	> 100
CCOC(=O)c1cc(-c2ccccc2)sc1NC(=O)CCOc1cccc(NS(C)(=O)=O)c1 [Compound 276]	> 100
CCOC(=O)c1cc(C2=CCN(C)CC2)sc1NC(=O)COC(=O)c1cccc(NS(C)(=O)=O)c1 [Compound 278]	> 100
CCOC(=O)c1cc(-c2ccccc2)sc1N1CCN(C(=O)c2cccc(NS(C)(=O)=O)c2)CC1 [Compound 279]	> 100
CCOC(=O)c1cc(-c2ccccc2)sc1NC(=O)CO/N=C/c1cccc(NS(C)(=O)=O)c1 [Compound 283]	> 100
C=CC(=O)Nc1cccc(C(=O)OCC(=O)Nc2sc(-c3ccccc3)cc2C(=O)OCC)c1 [Compound 284]	> 100
CS(=O)(=O)Nc1cccc(-c2nc3sc(-c4ccccc4)cc3c(=O)[nH]2)c1 [Compound 286]	> 100
CCOC(=O)c1c(NC(=O)COC(=O)c2cccc(NS(C)(=O)=O)c2)sc(N2CCOCC2)c1C [Compound 287]	> 100
CS(=O)(=O)Nc1cccc(C(=O)OCCNC(=O)c2cc(-c3ccccc3)sc2N)c1 [Compound 289]	> 100
CCOC(=O)c1cc(-c2ccccc2)sc1NC(=O)CN1C(=O)COc2ccc(NS(C)(=O)=O)cc21 [Compound 291]	> 100
CCOC(=O)c1cc(C2CCNCC2)sc1NC(=O)COC(=O)c1cccc(NS(C)(=O)=O)c1 [Compound 295]	> 100
CCOC(=O)c1cc(-c2ccccc2)sc1NC(=O)CS(=O)(=O)c1cccc(NS(C)(=O)=O)c1 [Compound 297]	> 100
CCOC(=O)c1cc(-c2ccccc2)sc1NC(=O)COc1cc(C(F)(F)F)nc(NS(C)(=O)=O)n1 [Compound 300]	> 100
CCOC(=O)c1cc(-c2ccc3c(cnn3C)c2)sc1NC(=O)COC(=O)c1cccc(NS(C)(=O)=O)c1 [Compound 305]	50 to 100
COC(=O)c1sccc1NC(=O)COC(=O)c1cccc(NS(C)(=O)=O)c1 [Compound 306]	> 100
CCOC(=O)c1cc(-c2ccccc2)sc1S(=O)(=O)N1CCN(C(=O)c2cccc(NS(C)(=O)=O)c2)CC1 [Compound 309]	50 to 100
CCOC(=O)c1cc(-c2ccccc2)sc1NC(=O)COC(=O)c1cccc(Br)c1 [Compound 314]	50 to 100
CCOC(=O)c1cc(Sc2ccccc2)sc1NC(=O)COC(=O)c1cccc(NS(C)(=O)=O)c1 [Compound 315]	> 100
CCOC(=O)c1cc(-c2ccccc2)sc1NC(=O)Cn1ccc(=O)c(O)c1C [Compound 319]	> 100
CCOC(=O)c1cc(-c2ccccc2)sc1NC(=O)CCSc1cccc(NS(C)(=O)=O)c1 [Compound 324]	> 100
CCOC(=O)c1cc(-c2ccccc2)sc1NC(=O)CN1CCN(C(=O)Cc2cccc(NS(C)(=O)=O)c2)CC1 [Compound 334]	> 100
CCOC(=O)c1cc(-c2ccc3c(cnn3C)c2)sc1NC(=O)CNC(=O)Cc1cccc(NS(C)(=O)=O)c1 [Compound 335]	> 100
CCOC(=O)c1cc(-c2ccccc2)sc1NC(=O)C(C)NC(=O)Cc1cccc(NS(C)(=O)=O)c1 (stereo not shown) [Compound 337]	> 100
CCOC(=O)c1cc(-c2ccccc2)sc1NC(=O)CNC(=O)c1cccc(CNS(C)(=O)=O)c1 [Compound 342]	> 100
CCOC(=O)c1cc(P(=O)(OCC)OCC)sc1NC(=O)COC(=O)c1cccc(NS(C)(=O)=O)c1 [Compound 345]	> 100

More lines, now with the values ahead:

EC50 [µM]	Compound
> 100	CCOC(=O)c1cc(-c2ccccc2)sc1NC(=O)c1nncn1-c1cccc(NS(C)(=O)=O)c1 [Compound 272]
> 100	CCOC(=O)c1cc(-c2ccccc2)sc1NC(=O)NS(=O)(=O)c1cccc(NS(C)(=O)=O)c1 [Compound 275]
> 100	CCOC(=O)c1ccncc1NC(=O)COC(=O)c1cccc(NS(C)(=O)=O)c1 [Compound 277]
> 100	CCOC(=O)c1cc(-c2ccccc2)sc1NC(=O)CN1CCN(c2cccc(NS(C)(=O)=O)c2)CC1 [Compound 280]
> 100	CS(=O)(=O)Nc1cccc(C(=O)NNC(=O)c2csc(-c3ccccc3)c2)c1 [Compound 281]
> 100	CCOC(=O)c1cc(-c2ccccc2)sc1NC(=O)CONC(=O)c1cccc(NS(C)(=O)=O)c1 [Compound 282]
> 100	CCOC(=O)c1cc(-c2ccccc2)sc1NC(=O)C1CCC(NC(=O)c2cccc(NS(C)(=O)=O)c2)CC1 (stereo not shown) [Compound 285]
> 100	CCOC(=O)c1cc(-c2ccccc2)sc1NC(=O)Cn1nc(-c2cccc(NS(C)(=O)=O)c2)oc1=O [Compound 288]
> 100	CCOC(=O)c1cc(-c2ccccc2)sc1NC(=O)OCc1nnc(-c2cccc(NS(C)(=O)=O)c2)o1 [Compound 290]
≤ 25	CCOC(=O)c1cc(-c2ccccc2)sc1NC(=O)COC(=O)c1cccc(NS(=O)(=O)c2ccn(C)n2)c1 [Compound 296]
> 100	CCOC(=O)c1cnc(NC(=O)COC(=O)c2cccc(NS(C)(=O)=O)c2)nc1-c1ccccc1 [Compound 298]
> 100	CCOC(=O)c1cc(-c2ccccc2)sc1NC(=O)COC(=O)c1cccc(B(O)O)c1 [Compound 299]
50 to 100	CCOC(=O)c1cc(-c2ccccc2)oc1NC(=O)COC(=O)c1cccc(NS(C)(=O)=O)c1 [Compound 301]
50 to 100	CCOC(=O)c1cc(-c2ccccc2)sc1NC(=O)CCC(=O)c1cccc(NS(C)(=O)=O)c1 [Compound 303]
> 100	CCOC(=O)c1cc(-c2ccccc2)sc1S(=O)(=O)N1CCN(S(C)(=O)=O)CC1 [Compound 307]
≤ 25	COC(=O)c1sc(-c2ccccc2)cc1NC(=O)COC(=O)c1cccc(NS(C)(=O)=O)c1 [Compound 311]
50 to 100	CCOC(=O)c1cc(-c2ccccc2)sc1NC(=O)CC(=O)Nc1cccc(NS(C)(=O)=O)c1 [Compound 312]
> 100	CCOC(=O)c1cc(-c2ccccc2)sc1-c1coc(/C=N\c2cccc(NS(C)(=O)=O)c2)c1 [Compound 313]
> 100	CCOC(=O)c1cc(-c2ccc3c(c2)OCO3)sc1NC(=O)COC(=O)c1cccc(NS(C)(=O)=O)c1 [Compound 316]
> 100	CCOC(=O)c1cc(-c2ccc3c(c2)OCCO3)sc1NC(=O)COC(=O)c1cccc(NS(C)(=O)=O)c1 [Compound 317]
50 to 100	COC(=O)c1sc(-c2ccccc2)cc1NC(=O)COC(=O)c1cccc(S(N)(=O)=O)c1 [Compound 318]
> 100	COC(=O)c1scc(-c2ccccc2)c1NC(=O)COC(=O)c1cccc(NS(C)(=O)=O)c1 [Compound 320]
> 100	CCOC(=O)c1cc(-c2ccccc2)sc1NC(=O)COC(=O)c1cccc(NS(=O)(=O)c2c(C)noc2C)c1 [Compound 322]
> 100	CCOC(=O)c1cc(-c2ccccc2)sc1NC(=O)c1cccc(NC(=O)c2cccc(NS(C)(=O)=O)c2)c1 [Compound 323]
> 100	COC(=O)c1sc(-c2ccccc2)cc1NC(=O)CNC(=O)c1cccc(NS(C)(=O)=O)c1 [Compound 332]
50 to 100	CCOC(=O)c1cc(-c2ccccc2)sc1NC(=O)C1CCN(C(=O)Cc2cccc(NS(C)(=O)=O)c2)C1 (stereo not shown) [Compound 333]
> 100	CCOC(=O)c1cc(-c2ccccc2)sc1NC(=O)CN(C)C(=O)Cc1cccc(NS(C)(=O)=O)c1 [Compound 336]
> 100	CCOC(=O)c1cc(-c2ccccc2)sc1NC(=O)CNC(=O)Cc1cccc(S(C)(=N)=O)c1 (stereo not shown) [Compound 338]
> 100	CCOC(=O)c1cc(-c2ccccc2)sc1NC(=O)CNC(=O)c1ccc2ccn(S(C)(=O)=O)c2c1 [Compound 339]
> 100	CCOC(=O)c1cc(-c2ccccc2)sc1NC(=O)COC(=O)c1ccc2ccn(S(C)(=O)=O)c2c1 [Compound 340]
